Columns and labels:
Italian ryegrass = test: Test Example 5: herbicidal effect by foliage application, plastic box (Table 20, symbol K); assay type: in vivo, Italian ryegrass (Lolium multiflorum); conditions: for K: Italian ryegrass, herbicidal effect grade: foliage application, three weeks after application; for Herbicidal effect by foliage application, K: Italian ryegrass: amount of applied herbicide 320 g/ha
In short: (§1)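 Plants were sown into sterilized diluvial soil under about 1.5 cm cover and kept in a greenhouse at 25° C. to 30° C. Fourteen days on, foliage received an even spray of the diluted emulsion. Herbicidal or crop effect was judged three weeks afterwards.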

barnyard grass [1] = test: Test Example 3: herbicidal effect by foliage application, Wagner pot (Table 18, symbol H); assay type: in vivo, barnyard grass (Echinochloa crus-galli); conditions: for herbicidal effect on H: barnyard grass: amount of applied herbicide 320 g/ha; for herbicidal effect on barnyard grass (H): 320 g/ha
In short: (§2)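 Plants were sown in alluvial soil held under 0.1–0.5 cm standing water and grown 14 days in a greenhouse at 25–30 °C. An emulsifiable formulation, water-diluted to the set dose, was then sprayed onto the foliage, and effects were scored three weeks later using previously defined criteria.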

lambsquarters = test: Test Example 5: herbicidal effect by foliage application, plastic box (Table 20, symbol O); assay type: in vivo, lambsquarters (Chenopodium album); conditions: for O: lambsquarters, herbicidal effect grade: foliage application, three weeks after application; for Herbicidal effect by foliage application, O: lambsquarters: amount of applied herbicide 320 g/ha
In short: as §1

blackgrass = test: Test Example 5: herbicidal effect by foliage application, plastic box (Table 20, symbol J); assay type: in vivo, blackgrass (Alopecurus myosuroides); conditions: for J: blackgrass, herbicidal effect grade: foliage application, three weeks after application; for Herbicidal effect by foliage application, J: blackgrass: amount of applied herbicide 320 g/ha
In short: as §1

windgrass = test: Test Example 5: herbicidal effect by foliage application, plastic box (Table 20, symbol L); assay type: in vivo, windgrass (Apera spica-venti); conditions: for L: windgrass, herbicidal effect grade: foliage application, three weeks after application; for Herbicidal effect by foliage application, L: windgrass: amount of applied herbicide 320 g/ha
In short: as §1

barnyard grass [2] = test: Test Example 5: herbicidal effect by foliage application, plastic box (Table 20, symbol H); assay type: in vivo, barnyard grass (Echinochloa crus-galli); conditions: for H: barnyard grass, herbicidal effect grade: foliage application, three weeks after application; for Herbicidal effect by foliage application, H: barnyard grass: amount of applied herbicide 320 g/ha
In short: as §1

green foxtail = test: Test Example 5: herbicidal effect by foliage application, plastic box (Table 20, symbol G); assay type: in vivo, green foxtail (Setaria viridis); conditions: for G: green foxtail, herbicidal effect grade: foliage application, three weeks after application; for Herbicidal effect by foliage application, G: green foxtail: amount of applied herbicide 320 g/ha
In short: as §1

persian speedwell = test: Test Example 5: herbicidal effect by foliage application, plastic box (Table 20, symbol R); assay type: in vivo, Persian speedwell (Veronica persica); conditions: for R: persian speedwell, herbicidal effect grade: foliage application, three weeks after application; for Herbicidal effect by foliage application, R: persian speedwell: amount of applied herbicide 320 g/ha
In short: as §1

redroot pigweed = test: Test Example 5: herbicidal effect by foliage application, plastic box (Table 20, symbol N); assay type: in vivo, redroot pigweed (Amaranthus retroflexus); conditions: for N: redroot pigweed, herbicidal effect grade: foliage application, three weeks after application; for Herbicidal effect by foliage application, N: redroot pigweed: amount of applied herbicide 320 g/ha
In short: as §1

velvetleaf = test: Test Example 5: herbicidal effect by foliage application, plastic box (Table 20, symbol M); assay type: in vivo, velvetleaf (Abutilon theophrasti); conditions: for M: velvetleaf, herbicidal effect grade: foliage application, three weeks after application; for Herbicidal effect by foliage application, M: velvetleaf: amount of applied herbicide 320 g/ha
In short: as §1

wild oat = test: Test Example 5: herbicidal effect by foliage application, plastic box (Table 20, symbol I); assay type: in vivo, wild oat (Avena fatua); conditions: for I: wild oat, herbicidal effect grade: foliage application, three weeks after application; for Herbicidal effect by foliage application, I: wild oat: amount of applied herbicide 320 g/ha
In short: as §1

Chinese sprangletop = test: Test Example 3: herbicidal effect by foliage application, Wagner pot (Table 18, symbol D); assay type: in vivo, chinese sprangletop (Leptochloa chinensis); conditions: for herbicidal effect on D: Chinese sprangletop: amount of applied herbicide 320 g/ha; for herbicidal effect on Chinese sprangletop (D): 320 g/ha
In short: as §2

rice flat sedge = test: Test Example 3: herbicidal effect by foliage application, Wagner pot (Table 18, symbol E); assay type: in vivo, rice flat sedge (Cyperus iria); conditions: for herbicidal effect on E: rice flat sedge: amount of applied herbicide 320 g/ha; for herbicidal effect on rice flat sedge (E): 320 g/ha
In short: as §2

chickweed = test: Test Example 5: herbicidal effect by foliage application, plastic box (Table 20, symbol P); assay type: in vivo, common chickweed (Stellaria media); conditions: for P: chickweed, herbicidal effect grade: foliage application, three weeks after application; for Herbicidal effect by foliage application, P: chickweed: amount of applied herbicide 320 g/ha
In short: as §1

southern crabgrass = test: Test Example 5: herbicidal effect by foliage application, plastic box (Table 20, symbol F); assay type: in vivo, southern crabgrass (Digitaria ciliaris); conditions: for F: southern crabgrass, herbicidal effect grade: foliage application, three weeks after application; for Herbicidal effect by foliage application, F: southern crabgrass: amount of applied herbicide 320 g/ha
In short: as §1

[3] = 320 g/ha, foliage application after 14-day growth, evaluated three weeks after application
[4] = foliage application after 14-day growth, evaluated three weeks after application

Structure (SMILES) | K: Italian ryegrass, herbicidal effect grade (Italian ryegrass; 320 g/ha) | herbicidal effect on H: barnyard grass (barnyard grass [1]) | O: lambsquarters, herbicidal effect grade (lambsquarters; 320 g/ha) | J: blackgrass, herbicidal effect grade (blackgrass; 320 g/ha) | L: windgrass, herbicidal effect grade (windgrass; 320 g/ha) | H: barnyard grass, herbicidal effect grade (barnyard grass [2]; 320 g/ha) | G: green foxtail, herbicidal effect grade (green foxtail; 320 g/ha) | R: persian speedwell, herbicidal effect grade (persian speedwell; 320 g/ha) | N: redroot pigweed, herbicidal effect grade (redroot pigweed; 320 g/ha) | M: velvetleaf, herbicidal effect grade (velvetleaf; 320 g/ha) | I: wild oat, herbicidal effect grade (wild oat; 320 g/ha) | herbicidal effect on D: Chinese sprangletop (Chinese sprangletop) | herbicidal effect on E: rice flat sedge (rice flat sedge) | P: chickweed, herbicidal effect grade (chickweed; 320 g/ha) | F: southern crabgrass, herbicidal effect grade (southern crabgrass; 320 g/ha) | herbicidal effect on barnyard grass (H) (barnyard grass [1]) | herbicidal effect on Chinese sprangletop (D) (Chinese sprangletop) | herbicidal effect on rice flat sedge (E) (rice flat sedge) | Herbicidal effect by foliage application, K: Italian ryegrass (Italian ryegrass; [4]) | Herbicidal effect by foliage application, O: lambsquarters (lambsquarters; [4]) | other results
COc1ccccc1-c1sc2ccc(F)cc2c1-c1c(O)c(C)nn(Cc2ccccc2)c1=O [2-438] | 0 (Herbicidal rate of 5% or less (almost no effect)) | 2 (Herbicidal rate of 20% or more and less than 40%) | 0 (Herbicidal rate of 5% or less (almost no effect)) | 0 (Herbicidal rate of 5% or less (almost no effect)) | 0 (Herbicidal rate of 5% or less (almost no effect)) | 0 (Herbicidal rate of 5% or less (almost no effect)) | 0 (Herbicidal rate of 5% or less (almost no effect)) | 0 (Herbicidal rate of 5% or less (almost no effect)) | 3 (Herbicidal rate of 40% or more and less than 70%) | 0 (Herbicidal rate of 5% or less (almost no effect)) | 0 (Herbicidal rate of 5% or less (almost no effect)) | 0 (Herbicidal rate of 5% or less (almost no effect)) | 2 (Herbicidal rate of 20% or more and less than 40%) | 0 (Herbicidal rate of 5% or less (almost no effect)) | 0 (Herbicidal rate of 5% or less (almost no effect)) |  |  |  |  |  | 
COc1ccccc1-c1sc2cc(F)ccc2c1-c1c(OC(=O)c2ccccc2C)c(C)nn(C)c1=O [3-022] | 0 (Herbicidal rate of 5% or less (almost no effect)) | 4 (Herbicidal rate of 70% or more and less than 90%) | 0 (Herbicidal rate of 5% or less (almost no effect)) | 0 (Herbicidal rate of 5% or less (almost no effect)) | 0 (Herbicidal rate of 5% or less (almost no effect)) | 0 (Herbicidal rate of 5% or less (almost no effect)) | 0 (Herbicidal rate of 5% or less (almost no effect)) | 0 (Herbicidal rate of 5% or less (almost no effect)) | 3 (Herbicidal rate of 40% or more and less than 70%) | 0 (Herbicidal rate of 5% or less (almost no effect)) | 0 (Herbicidal rate of 5% or less (almost no effect)) | 2 (Herbicidal rate of 20% or more and less than 40%) | 0 (Herbicidal rate of 5% or less (almost no effect)) | 3 (Herbicidal rate of 40% or more and less than 70%) | 0 (Herbicidal rate of 5% or less (almost no effect)) |  |  |  |  |  | 
C#CCOc1c(C)nn(C)c(=O)c1-c1c(-c2ccccc2OC)sc2cc(OC)ccc12 [3-154] |  |  |  |  |  |  |  |  |  |  |  |  |  |  |  | 3 (Herbicidal rate of 40% or more and less than 70%) | 2 (Herbicidal rate of 20% or more and less than 40%) | 3 (Herbicidal rate of 40% or more and less than 70%) |  |  | herbicidal effect on K: Italian ryegrass (evaluation grade 0-5) (Italian ryegrass; [3]): 0 (Herbicidal rate of 5% or less (almost no effect)); herbicidal effect on O: lambsquarters (evaluation grade 0-5) (lambsquarters; [3]): 3 (Herbicidal rate of 40% or more and less than 70%); herbicidal effect on J: blackgrass (evaluation grade 0-5) (blackgrass; [3]): 0 (Herbicidal rate of 5% or less (almost no effect)); herbicidal effect on L: windgrass (evaluation grade 0-5) (windgrass; [3]): 0 (Herbicidal rate of 5% or less (almost no effect)); herbicidal effect on H: barnyard grass (evaluation grade 0-5) (barnyard grass [2]; [3]): 3 (Herbicidal rate of 40% or more and less than 70%); herbicidal effect on G: green foxtail (evaluation grade 0-5) (green foxtail; [3]): 3 (Herbicidal rate of 40% or more and less than 70%); herbicidal effect on R: persian speedwell (evaluation grade 0-5) (persian speedwell; [3]): 3 (Herbicidal rate of 40% or more and less than 70%); herbicidal effect on N: redroot pigweed (evaluation grade 0-5) (redroot pigweed; [3]): 4 (Herbicidal rate of 70% or more and less than 90%); herbicidal effect on M: velvetleaf (evaluation grade 0-5) (velvetleaf; [3]): 0 (Herbicidal rate of 5% or less (almost no effect)); herbicidal effect on I: wild oat (evaluation grade 0-5) (wild oat; [3]): 0 (Herbicidal rate of 5% or less (almost no effect)); herbicidal effect on P: chickweed (evaluation grade 0-5) (chickweed; [3]): 5 (Herbicidal rate of 90% or more (almost completely withered)); herbicidal effect on F: southern crabgrass (evaluation grade 0-5) (southern crabgrass; [3]): 0 (Herbicidal rate of 5% or less (almost no effect))
Cc1nn(C)c(=O)c(-c2c(-c3ccc(C(C)C)cc3)sc3cc(F)c(F)cc23)c1O [5-005] |  |  |  |  |  |  |  |  |  |  |  |  |  |  |  | 3 (Herbicidal rate of 40% or more and less than 70%) | 5 (Herbicidal rate of 90% or more (almost completely withered)) | 4 (Herbicidal rate of 70% or more and less than 90%) | 0 (Herbicidal rate of 5% or less (almost no effect)) | 0 (Herbicidal rate of 5% or less (almost no effect)) | Herbicidal effect by foliage application, J: blackgrass (blackgrass; [4]): 0 (Herbicidal rate of 5% or less (almost no effect)); Herbicidal effect by foliage application, L: windgrass (windgrass; [4]): 0 (Herbicidal rate of 5% or less (almost no effect)); Herbicidal effect by foliage application, H: barnyard grass (barnyard grass [2]; [4]): 0 (Herbicidal rate of 5% or less (almost no effect)); Herbicidal effect by foliage application, G: green foxtail (green foxtail; [4]): 0 (Herbicidal rate of 5% or less (almost no effect)); Herbicidal effect by foliage application, R: persian speedwell (persian speedwell; [4]): 4 (Herbicidal rate of 70% or more and less than 90%); Herbicidal effect by foliage application, N: redroot pigweed (redroot pigweed; [4]): 3 (Herbicidal rate of 40% or more and less than 70%); Herbicidal effect by foliage application, M: velvetleaf (velvetleaf; [4]): 3 (Herbicidal rate of 40% or more and less than 70%); Herbicidal effect by foliage application, I: wild oat (wild oat; [4]): 0 (Herbicidal rate of 5% or less (almost no effect)); Herbicidal effect by foliage application, P: chickweed (chickweed; [4]): 5 (Herbicidal rate of 90% or more (almost completely withered)); Herbicidal effect by foliage application, F: southern crabgrass (southern crabgrass; [4]): 0 (Herbicidal rate of 5% or less (almost no effect))
CSc1ccccc1-c1sc2c(C)cccc2c1-c1c(O)c(C)nn(C)c1=O [4-116] |  |  |  |  |  |  |  |  |  |  |  |  |  |  |  | 3 (Herbicidal rate of 40% or more and less than 70%) | 4 (Herbicidal rate of 70% or more and less than 90%) | 3 (Herbicidal rate of 40% or more and less than 70%) | 0 (Herbicidal rate of 5% or less (almost no effect)) | 0 (Herbicidal rate of 5% or less (almost no effect)) | Herbicidal effect by foliage application, J: blackgrass (blackgrass; [4]): 0 (Herbicidal rate of 5% or less (almost no effect)); Herbicidal effect by foliage application, L: windgrass (windgrass; [4]): 0 (Herbicidal rate of 5% or less (almost no effect)); Herbicidal effect by foliage application, H: barnyard grass (barnyard grass [2]; [4]): 0 (Herbicidal rate of 5% or less (almost no effect)); Herbicidal effect by foliage application, G: green foxtail (green foxtail; [4]): 0 (Herbicidal rate of 5% or less (almost no effect)); Herbicidal effect by foliage application, R: persian speedwell (persian speedwell; [4]): 4 (Herbicidal rate of 70% or more and less than 90%); Herbicidal effect by foliage application, N: redroot pigweed (redroot pigweed; [4]): 0 (Herbicidal rate of 5% or less (almost no effect)); Herbicidal effect by foliage application, M: velvetleaf (velvetleaf; [4]): 0 (Herbicidal rate of 5% or less (almost no effect)); Herbicidal effect by foliage application, I: wild oat (wild oat; [4]): 0 (Herbicidal rate of 5% or less (almost no effect)); Herbicidal effect by foliage application, P: chickweed (chickweed; [4]): 4 (Herbicidal rate of 70% or more and less than 90%); Herbicidal effect by foliage application, F: southern crabgrass (southern crabgrass; [4]): 0 (Herbicidal rate of 5% or less (almost no effect))

Source: patent publication US20230085307A1, “PYRIDAZINONE COMPOUND AND HERBICIDE” (NISSAN CHEMICAL CORPORATION, priority 2019, published 2023)
